How the values were obtained:
Assay type in all cases: cell-based
[1] = system: Enterobacter cloacae; assay: MIC against Gram-negative bacteria: Enterobacter cloacae
How it was run: (§1)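 Inocula prepared by growing LB cultures at 37° C to 0.5 McFarland, centrifuging at 4000×g, and resuspending in fresh medium. Final density 5×10^5 CFU/mL per well with two-fold dilutions of purified EGF domain protein; shaking incubation at 37° C.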

[2] = system: Serratia marcescens; assay: MIC against Gram-negative bacteria: Serratia marcescens
How it was run: as §1

[3] = system: E. coli DH5α; assay: Antibacterial activity: MIC and growth curve against E. coli DH5α in 96-well plate; details: minimal inhibitory concentration against E. coli DH5α; 96-well plate, 5×10^5 CFU/mL, 37° C., judged after 8 h
How it was run: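 Log-phase DH5α (OD600 about 0.5, 37° C, 185 rpm in LB) was pelleted, resuspended in fresh LB and seeded at 5×10^5 CFU/mL with recombinant protein at 50, 25 and 12.5 μg/mL (two-fold series), in triplicate. Plates were shaken at 175 rpm, 37° C, and OD600 was read every 30 min. MIC was the lowest concentration with no growth.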

[4] = system: Proteus mirabilis; assay: MIC against Gram-negative bacteria: Proteus mirabilis
How it was run: as §1

[5] = system: E. coli BL21; assay: MIC against Gram-negative bacteria: E. coli BL21; details: for MIC (μg/mL) E. coli BL21 / MIC: E. coli BL21
How it was run: as §1

[6] = system: Proteus vulgaris; assay: MIC against Gram-negative bacteria: Proteus vulgaris
How it was run: as §1

[7] = system: Moraxella catarrhalis; assay: MIC against Gram-negative bacteria: Moraxella catarrhalis
How it was run: as §1

[8] = system: Aeromonas hydrophila; assay: MIC against Gram-negative bacteria: Aeromonas hydrophila
How it was run: as §1

[9] = system: Pseudomonas aeruginosa; assay: MIC against Gram-negative bacteria: Pseudomonas aeruginosa
How it was run: as §1

[10] = system: Citrobacter diversus; assay: MIC against Gram-negative bacteria: Citrobacter diversus
How it was run: as §1

[11] = system: Klebsiella pneumonia; assay: MIC against Gram-negative bacteria: Klebsiella pneumonia
How it was run: as §1

[12] = 10 h cultivation at 37° C., 5×10^5 CFU/mL, two-fold serial dilution
[13] = E. cloacae, 10 h cultivation at 37° C., 5×10^5 CFU/mL
[14] = S. marcescens, 10 h cultivation at 37° C., 5×10^5 CFU/mL
[15] = P. mirabilis, 10 h cultivation at 37° C., 5×10^5 CFU/mL
[16] = 10 h cultivation at 37° C., 5×10^5 CFU/mL
[17] = P. vulgaris, 10 h cultivation at 37° C., 5×10^5 CFU/mL
[18] = M. catarrhalis, 10 h cultivation at 37° C., 5×10^5 CFU/mL
[19] = A. hydrophila, 10 h cultivation at 37° C., 5×10^5 CFU/mL
[20] = P. aeruginosa, 10 h cultivation at 37° C., 5×10^5 CFU/mL
[21] = C. diversus, 10 h cultivation at 37° C., 5×10^5 CFU/mL
[22] = K. pneumonia, 10 h cultivation at 37° C., 5×10^5 CFU/mL

PRT128 (CLPSYCEHGGECSQSWDTFSCDCLGTGYTGETC; listed as Homo sapiens)
MIC (μg/mL) E. cloacae ([1]; Enterobacter cloacae, 96-well plate, 5×10^5 CFU/mL, 37° C., 10 h): 12.5 µg/mL
MIC (μg/mL) S. marcescens ([2]; Serratia marcescens, 96-well plate, 5×10^5 CFU/mL, 37° C., 10 h): 50 µg/mL
MIC [3]: 12.5 µg/mL
MIC (μg/mL) P. mirabilis ([4]; Proteus mirabilis, 96-well plate, 5×10^5 CFU/mL, 37° C., 10 h): 12.5 µg/mL
MIC (μg/mL) E. coli BL21 ([5]; 96-well plate, 5×10^5 CFU/mL, 37° C., 10 h): 25 µg/mL
MIC (μg/mL) P. vulgaris ([6]; Proteus vulgaris, 96-well plate, 5×10^5 CFU/mL, 37° C., 10 h): 12.5 µg/mL
MIC (μg/mL) M. catarrhalis ([7]; Moraxella catarrhalis, 96-well plate, 5×10^5 CFU/mL, 37° C., 10 h): 12.5 µg/mL
MIC (μg/mL) A. hydrophila ([8]; Aeromonas hydrophila, 96-well plate, 5×10^5 CFU/mL, 37° C., 10 h): 12.5 µg/mL
MIC (μg/mL) P. aeruginosa ([9]; Pseudomonas aeruginosa, 96-well plate, 5×10^5 CFU/mL, 37° C., 10 h): 12.5 µg/mL
MIC (μg/mL) C. diversus ([10]; Citrobacter diversus, 96-well plate, 5×10^5 CFU/mL, 37° C., 10 h): 12.5 µg/mL
MIC (μg/mL) K. pneumonia ([11]; Klebsiella pneumonia, 96-well plate, 5×10^5 CFU/mL, 37° C., 10 h): 25 µg/mL

PRT1187 (NTNDCNPLPCYNGGICVDGVNWFRCECAPGFAGPDCR; listed as Homo sapiens)
MIC E. cloacae [1, 12]: 25 µg/mL
MIC S. marcescens [2, 12]: 12.5 µg/mL
MIC [3]: 50 µg/mL
MIC P. mirabilis [4, 12]: 25 µg/mL
MIC E. coli BL21 [5, 12]: 25 µg/mL
MIC P. vulgaris [6, 12]: 12.5 µg/mL
MIC M. catarrhalis [7, 12]: 12.5 µg/mL
MIC A. hydrophila [8, 12]: 12.5 µg/mL
MIC P. aeruginosa [9, 12]: 12.5 µg/mL
MIC C. diversus [10, 12]: 12.5 µg/mL
MIC K. pneumonia [11, 12]: 25 µg/mL

PRT152 (LPCPGGTERPCGGYGQCEGEGTRGGSGHCDCQAGYGGEACG; listed as Homo sapiens)
MIC (μg/mL) E. cloacae [1, 13]: 12.5 µg/mL
MIC (μg/mL) S. marcescens [2, 14]: 12.5 µg/mL
MIC [3]: 12.5 µg/mL
MIC (μg/mL) P. mirabilis [4, 15]: 25 µg/mL
MIC (μg/mL) E. coli BL21 [5, 16]: 12.5 µg/mL
MIC (μg/mL) P. vulgaris [6, 17]: 12.5 µg/mL
MIC (μg/mL) M. catarrhalis [7, 18]: 12.5 µg/mL
MIC (μg/mL) A. hydrophila [8, 19]: 12.5 µg/mL
MIC (μg/mL) P. aeruginosa [9, 20]: 12.5 µg/mL
MIC (μg/mL) C. diversus [10, 21]: 25 µg/mL
MIC (μg/mL) K. pneumonia [11, 22]: 12.5 µg/mL

PRT258 (CSHPDRGGCSENAECVPGSLGTHHCTCHKGWSGDGRVC; listed as Homo sapiens)
MIC (μg/mL) E. cloacae [1, 13]: 50 µg/mL
MIC (μg/mL) S. marcescens [2, 14]: 25 µg/mL
MIC [3]: 50 µg/mL
MIC (μg/mL) P. mirabilis [4, 15]: 25 µg/mL
MIC (μg/mL) E. coli BL21 [5, 16]: 12.5 µg/mL
MIC (μg/mL) P. vulgaris [6, 17]: 50 µg/mL
MIC (μg/mL) M. catarrhalis [7, 18]: 12.5 µg/mL
MIC (μg/mL) A. hydrophila [8, 19]: 12.5 µg/mL
MIC (μg/mL) P. aeruginosa [9, 20]: 50 µg/mL
MIC (μg/mL) C. diversus [10, 21]: 25 µg/mL
MIC (μg/mL) K. pneumonia [11, 22]: 12.5 µg/mL

PRT435 (DMDECSFSEFLCQHECVNQPGTYFCSCPPGYILLDDNRSCQ; listed as Homo sapiens)
MIC [1, 13]: 12.5 µg/mL
MIC [2, 14]: 50 µg/mL
MIC [3]: 12.5 µg/mL
MIC [4, 15]: 12.5 µg/mL
MIC [5, 16]: 25 µg/mL
MIC [6, 17]: 25 µg/mL
MIC [7, 18]: 25 µg/mL
MIC [8, 19]: 25 µg/mL
MIC [9, 20]: 12.5 µg/mL
MIC [10, 21]: 12.5 µg/mL
MIC [11, 22]: 25 µg/mL

PRT917 (DVNECGQKPGLCRHGGTCHNEVGSYRCVCRATHTGPNCE; listed as Homo sapiens)
MIC ([1]; E. cloacae, 10 h cultivation at 37° C.): 50 µg/mL
MIC ([2]; S. marcescens, 10 h cultivation at 37° C.): 25 µg/mL
MIC [3]: 25 µg/mL
MIC ([4]; P. mirabilis, 10 h cultivation at 37° C.): 25 µg/mL
MIC ([5]; 10 h cultivation at 37° C.): 50 µg/mL
MIC ([6]; P. vulgaris, 10 h cultivation at 37° C.): 25 µg/mL
MIC ([7]; M. catarrhalis, 10 h cultivation at 37° C.): 50 µg/mL
MIC ([8]; A. hydrophila, 10 h cultivation at 37° C.): 25 µg/mL
MIC ([9]; P. aeruginosa, 10 h cultivation at 37° C.): 12.5 µg/mL
MIC ([10]; C. diversus, 10 h cultivation at 37° C.): 12.5 µg/mL
MIC ([11]; K. pneumonia, 10 h cultivation at 37° C.): 25 µg/mL

PRT238 (DICDPNPCENGGICLPGLADGSFSCECPDGFTDPNCS; listed as Homo sapiens)
MIC (μg/mL) E. cloacae [1, 13]: 25 µg/mL
MIC (μg/mL) S. marcescens [2, 14]: 12.5 µg/mL
MIC [3]: 25 µg/mL
MIC (μg/mL) P. mirabilis [4, 15]: 12.5 µg/mL
MIC (μg/mL) E. coli BL21 [5, 16]: 12.5 µg/mL
MIC (μg/mL) P. vulgaris [6, 17]: 25 µg/mL
MIC (μg/mL) M. catarrhalis [7, 18]: 12.5 µg/mL
MIC (μg/mL) A. hydrophila [8, 19]: 12.5 µg/mL
MIC (μg/mL) P. aeruginosa [9, 20]: 25 µg/mL
MIC (μg/mL) C. diversus [10, 21]: 25 µg/mL
MIC (μg/mL) K. pneumonia [11, 22]: 50 µg/mL
